Patent publication US11629171B2, “Beta-hairpin peptidomimetics” (POLYPHOR AG, priority 2017, dated 2023)
≈ marks a conversion by molar mass, not a printed value. Where a SMILES comes first, the peptide text is derived from it. Bridges are numbered along the chain shown (N, C = ends). Roman numbers before positions name the chains, in order. [ ]: non-standard residue; d: D form. Hiv = CC(C)[C@H](O)C(=O)O; dDab = NCC[C@@H](N)C(=O)O; Dab = NCC[C@H](N)C(=O)O; Dap = NC[C@H](N)C(=O)O

Legend:
Format in all cases: cell-based
[1] = system: Acinetobacter baumannii 872842; conditions: 872842
Outline: (§1)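 Visible-growth endpoint after 18-20 h at 35° C defines the MIC (μg/mL). Setup: CLSI broth microdilution, MH-II cation-adjusted broth with P-80 at 0.002% final, inoculum of approximately 10^6 CFU/mL, two-fold serial peptide dilutions.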

[2] = system: Acinetobacter baumannii DSM 30008; conditions: DSM 30008
Outline: as §1

[3] = system: Enterobacter cloacae 848840; conditions: 848840
Outline: as §1

Escherichia coli 926415 = conditions: 926415
Outline: as §1

[4] = system: Escherichia coli ATCC 25922; conditions: ATCC 25922
Outline: as §1

[5] = system: Klebsiella pneumoniae 968733; conditions: 968733
Outline: as §1

[6] = system: Klebsiella pneumoniae SSI #3010; conditions: SSI #3010
Outline: as §1

[7] = system: Pseudomonas aeruginosa ATCC 27853; conditions: ATCC 27853
Outline: as §1

[8] = system: human red blood cells (hRBC); assay: Hemolysis; conditions: red cells of human, 1 h, 200
Outline: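 hRBC washed 4× in PBS; 200 μg/mL peptide + 20% (v/v) hRBC, 1 h, 37° C, 300 rpm. Spin, supernatant ~7.5-fold diluted, OD540 blank corrected. % hemolysis = OD540 peptide / OD540 Triton X-100 × 100.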

Compound	MIC [1]	Acinetobacter baumannii DSM 30008 MIC [2]	MIC [3]	MIC (Escherichia coli 926415)	Escherichia coli ATCC 25922 MIC [4]	MIC [5]	Klebsiella pneumoniae SSI #3010 MIC [6]	Pseudomonas aeruginosa ATCC 27853 MIC [7]	Hemolysis at 200 μg/mL [8]
CC(=O)N[C@H](C(=O)N[C@H]1CCNC(=O)CC[C@@H](C(=O)N[C@@H](CO)C(N)=O)NC(=O)[C@H](CC(C)C)NC(=O)[C@H](CO)NC(=O)[C@H](Cc2c[nH]c3ccccc23)NC(=O)[C@H](CO)NC(=O)[C@@H](CCN)NC(=O)[C@H](CCC(=O)N[C@@H](CCN)C(=O)N[C@H](C(=O)N[C@@H](CN)C(=O)N[C@H]2CCNC(=O)[C@H]([C@@H](C)O)NC(=O)[C@H](CCN)NC(=O)[C@H](CCN)NC(=O)[C@H](CC(C)C)NC(=O)[C@@H](CC(C)C)NC(=O)[C@H](CCN)NC2=O)[C@@H](C)O)NC(=O)[C@H](CCN)NC(=O)[C@H](Cc2ccc(O)cc2)NC1=O)C(C)C [Ex. 327] (I: Ac-V[Dab]Y[Dab]E[dDab]SWSLES-NH2 / II: [Dab]T[Dap][Dab][Dab][dL]L[Dab][Dab]T; lactam I:2-I:11, II:4-II:C; amide I:5-II:N)	0.125 mg/L (≈ 0.0517 µM)	0.0625 mg/L	0.125 mg/L (≈ 0.0517 µM)	0.25 mg/L (≈ 0.103 µM)	0.0625 mg/L	0.5 mg/L (≈ 0.207 µM)	0.0625 mg/L	0.125 mg/L	<1%
CC(=O)N[C@H](C(=O)N[C@H]1CSSC[C@@H](C(=O)N[C@@H](CO)C(N)=O)NC(=O)[C@H](C(C)C)NC(=O)[C@H](CO)NC(=O)[C@H](Cc2c[nH]c3ccccc23)NC(=O)[C@H](CO)NC(=O)[C@@H](CCN)NC(=O)[C@H](CCC(=O)N[C@@H](CCN)C(=O)N[C@H](C(=O)N[C@@H](CN)C(=O)N[C@H]2CCNC(=O)[C@H]([C@@H](C)O)NC(=O)[C@H](CCN)NC(=O)[C@H](CCN)NC(=O)[C@H](CC(C)C)NC(=O)[C@@H](CC(C)C)NC(=O)[C@H](CCN)NC2=O)[C@@H](C)O)NC(=O)[C@H](Cc2c[nH]cn2)NC(=O)[C@H](Cc2ccc(O)cc2)NC1=O)C(C)C [Ex. 328] (I: Ac-VCYHE[dDab]SWSVCS-NH2 / II: [Dab]T[Dap][Dab][Dab][dL]L[Dab][Dab]T; disulfide I:2-I:11; amide I:5-II:N; lactam II:4-II:C)	0.0625 mg/L (≈ 0.0257 µM)	0.01562 mg/L	0.0625 mg/L (≈ 0.0257 µM)	0.125 mg/L (≈ 0.0513 µM)	0.01562 mg/L	0.25 mg/L (≈ 0.103 µM)	0.125 mg/L	0.0625 mg/L	1%
CC(=O)N[C@H](C(=O)N[C@H]1CSSC[C@@H](C(=O)N[C@@H](CO)C(N)=O)NC(=O)[C@H](C(C)C)NC(=O)[C@H](Cc2c[nH]cn2)NC(=O)[C@H](Cc2c[nH]c3ccccc23)NC(=O)[C@H](CO)NC(=O)[C@@H](CCN)NC(=O)[C@H](CCC(=O)N[C@@H](CCN)C(=O)N[C@H](C(=O)N[C@@H](CN)C(=O)N[C@H]2CCNC(=O)[C@H]([C@@H](C)O)NC(=O)[C@H](CCN)NC(=O)[C@H](CCN)NC(=O)[C@H](CC(C)C)NC(=O)[C@@H](CC(C)C)NC(=O)[C@H](CCN)NC2=O)[C@@H](C)O)NC(=O)[C@H](CCN)NC(=O)[C@H](Cc2ccc(O)cc2)NC1=O)C(C)C [Ex. 329] (I: Ac-VCY[Dab]E[dDab]SWHVCS-NH2 / II: [Dab]T[Dap][Dab][Dab][dL]L[Dab][Dab]T; disulfide I:2-I:11; amide I:5-II:N; lactam II:4-II:C)	0.125 mg/L (≈ 0.051 µM)	0.0625 mg/L	0.125 mg/L (≈ 0.051 µM)	0.125 mg/L (≈ 0.051 µM)	0.0625 mg/L	0.25 mg/L (≈ 0.102 µM)	0.125 mg/L	0.125 mg/L	<1%
CC(=O)N[C@@H](CC(C)C)C(=O)N[C@H]1CSSC[C@@H](C(=O)N[C@@H](CO)C(N)=O)NC(=O)[C@H](C(C)C)NC(=O)[C@H](CCN)NC(=O)[C@H](Cc2c[nH]c3ccccc23)NC(=O)[C@H](CO)NC(=O)[C@@H](CCN)NC(=O)[C@H](CCC(=O)N[C@@H](CCN)C(=O)N[C@H](C(=O)N[C@@H](CN)C(=O)N[C@H]2CCNC(=O)[C@H]([C@@H](C)O)NC(=O)[C@H](CCN)NC(=O)[C@H](CCN)NC(=O)[C@H](CC(C)C)NC(=O)[C@@H](CC(C)C)NC(=O)[C@H](CCN)NC2=O)[C@@H](C)O)NC(=O)[C@H](CCN)NC(=O)[C@H](Cc2ccc(O)cc2)NC1=O [Ex. 330] (I: Ac-LCY[Dab]E[dDab]SW[Dab]VCS-NH2 / II: [Dab]T[Dap][Dab][Dab][dL]L[Dab][Dab]T; disulfide I:2-I:11; amide I:5-II:N; lactam II:4-II:C)	1 mg/L (≈ 0.412 µM)	0.25 mg/L	0.125 mg/L (≈ 0.0515 µM)	0.25 mg/L (≈ 0.103 µM)	0.0625 mg/L	2 mg/L (≈ 0.824 µM)	0.0625 mg/L	0.25 mg/L	1%
CC(=O)N[C@H](C(=O)N[C@H]1CCNC(=O)C[C@@H](C(=O)N[C@@H](CO)C(N)=O)NC(=O)[C@H](C(C)C)NC(=O)[C@H](CO)NC(=O)[C@H](Cc2c[nH]c3ccccc23)NC(=O)CNC(=O)[C@@H](CCN)NC(=O)[C@H](CCC(=O)N[C@@H](CCN)C(=O)N[C@H](C(=O)N[C@@H](CN)C(=O)N[C@H]2CCNC(=O)[C@H]([C@@H](C)O)NC(=O)[C@H](CCN)NC(=O)[C@H](CCN)NC(=O)[C@H](CC(C)C)NC(=O)[C@@H](CC(C)C)NC(=O)[C@H](CCN)NC2=O)[C@@H](C)O)NC(=O)[C@H](CN)NC(=O)[C@H](Cc2ccc(O)cc2)NC1=O)C(C)C [Ex. 346] (I: Ac-V[Dab]Y[Dap]E[dDab]GWSVDS-NH2 / II: [Dab]T[Dap][Dab][Dab][dL]L[Dab][Dab]T; lactam I:2-I:11, II:4-II:C; amide I:5-II:N)	0.125 mg/L (≈ 0.0532 µM)	0.0625 mg/L	0.125 mg/L (≈ 0.0532 µM)	0.25 mg/L (≈ 0.106 µM)	0.0625 mg/L	0.5 mg/L (≈ 0.213 µM)	0.0625 mg/L	0.125 mg/L	<1%
CC(C)C[C@@H]1NC(=O)[C@@H](CC(C)C)NC(=O)[C@H](CCN)NC(=O)[C@@H](NC(=O)[C@H](CN)NC(=O)[C@@H](NC(=O)[C@H](CCN)NC(=O)CC[C@@H]2NC(=O)[C@H](CCN)NC(=O)[C@H](Cc3ccc(O)cc3)NC(=O)[C@@H](NC(=O)[C@@H](O)C(C)C)CCNC(=O)C[C@@H](C(=O)N[C@@H](CO)C(N)=O)NC(=O)[C@H](C(C)C)NC(=O)[C@H](CO)NC(=O)[C@H](Cc3c[nH]c4ccccc34)NC(=O)CNC(=O)[C@@H](CCN)NC2=O)[C@@H](C)O)CCNC(=O)[C@H]([C@@H](C)O)NC(=O)[C@H](CCN)NC(=O)[C@H](CCN)NC1=O [Ex. 347] (I: H-[Hiv][Dab]Y[Dab]E[dDab]GWSVDS-NH2 / II: [Dab]T[Dap][Dab][Dab][dL]L[Dab][Dab]T; lactam I:2-I:11, II:4-II:C; amide I:5-II:N)	0.25 mg/L (≈ 0.108 µM)	0.125 mg/L	0.5 mg/L (≈ 0.215 µM)	0.25 mg/L (≈ 0.108 µM)	0.0625 mg/L	1 mg/L (≈ 0.431 µM)	0.0625 mg/L	0.125 mg/L	<1%
CC(=O)N[C@H](C(=O)N[C@H]1CCN(C)C(=O)C[C@@H](C(=O)N[C@@H](CO)C(N)=O)NC(=O)[C@H](C(C)C)NC(=O)[C@H](CO)NC(=O)[C@H](Cc2c[nH]c3ccccc23)NC(=O)CNC(=O)[C@@H](CCN)NC(=O)[C@H](CCC(=O)N[C@@H](CCN)C(=O)N[C@H](C(=O)N[C@@H](CN)C(=O)N[C@H]2CCNC(=O)[C@H]([C@@H](C)O)NC(=O)[C@H](CCN)NC(=O)[C@H](CCN)NC(=O)[C@H](CC(C)C)NC(=O)[C@@H](CC(C)C)NC(=O)[C@H](CCN)NC2=O)[C@@H](C)O)NC(=O)[C@H](CCN)NC(=O)[C@H](Cc2ccc(O)cc2)NC1=O)C(C)C [Ex. 348]	0.5 mg/L (≈ 0.21 µM)	0.125 mg/L	0.5 mg/L (≈ 0.21 µM)	0.5 mg/L (≈ 0.21 µM)	0.0625 mg/L	2 mg/L (≈ 0.842 µM)	0.0625 mg/L	0.125 mg/L	<1%
